Source: ChEMBL document CHEMBL4152229, “Synthesis and biological evaluation of 2,6-disubstituted-9H-purine, 2,4-disubstitued-thieno[3,2-d]pyrimidine and -7H-pyrrolo[2,3-d]pyrimidine analogues as novel CHK1 inhibitors” (Eur J Med Chem, 2018)

What was measured:
[1] = target: Mitogen-activated protein kinase 1 (Homo sapiens) (UniProt P28482); assay: Inhibition of DNA-tagged MAPK1 (unknown origin) expressed in HEK293 cells at 10 uM after 1 hr by real-time fluorescent quantitative PCR analysis; type: cell-based
[2] = target: T1, Serine/threonine-protein kinase Chk1 (Homo sapiens) (UniProt O14757); assay: Inhibition of DNA-tagged CHK1 (unknown origin) expressed in HEK293 cells at 10 uM after 1 hr by real-time fluorescent quantitative PCR analysis; type: cell-based
T1 sequence (whole entry): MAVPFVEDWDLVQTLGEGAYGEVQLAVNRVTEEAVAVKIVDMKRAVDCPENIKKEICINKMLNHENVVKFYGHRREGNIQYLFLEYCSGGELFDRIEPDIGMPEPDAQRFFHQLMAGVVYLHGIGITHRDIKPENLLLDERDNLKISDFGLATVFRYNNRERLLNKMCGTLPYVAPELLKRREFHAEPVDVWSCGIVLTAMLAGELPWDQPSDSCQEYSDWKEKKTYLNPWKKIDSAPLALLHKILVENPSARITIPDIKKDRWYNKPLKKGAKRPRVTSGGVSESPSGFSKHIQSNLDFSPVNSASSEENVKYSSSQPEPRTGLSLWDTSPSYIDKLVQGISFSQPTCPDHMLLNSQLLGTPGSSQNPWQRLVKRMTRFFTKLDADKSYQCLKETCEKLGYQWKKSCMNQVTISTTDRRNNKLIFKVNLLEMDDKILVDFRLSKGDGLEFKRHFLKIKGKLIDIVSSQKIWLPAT

[3] = target: Cyclin-dependent kinase 2 (Homo sapiens) (UniProt P24941); assay: Inhibition of DNA-tagged CDK2 (unknown origin) expressed in HEK293 cells at 10 uM after 1 hr by real-time fluorescent quantitative PCR analysis; type: cell-based
[4] = target: Glycogen synthase kinase-3 beta (Homo sapiens) (UniProt P49841); assay: Inhibition of DNA-tagged GSK3beta (unknown origin) expressed in HEK293 cells at 10 uM after 1 hr by real-time fluorescent quantitative PCR analysis; type: cell-based
HT-29 [5] = assay: Potentiation of gemcitabine-induced cell cycle arrest in human HT-29 cells assessed as accumulation at S phase at 10 uM after 48 hrs by propidium iodide/RNase staining-based flow cytometric analysis (reference value: 62.1%); type: functional
[6] = target: T2, Ephrin type-B receptor 4 (Homo sapiens) (UniProt P54760); assay: Inhibition of DNA-tagged EPHB4 (unknown origin) expressed in HEK293 cells at 10 uM after 1 hr by real-time fluorescent quantitative PCR analysis; type: cell-based
T2 sequence (whole entry): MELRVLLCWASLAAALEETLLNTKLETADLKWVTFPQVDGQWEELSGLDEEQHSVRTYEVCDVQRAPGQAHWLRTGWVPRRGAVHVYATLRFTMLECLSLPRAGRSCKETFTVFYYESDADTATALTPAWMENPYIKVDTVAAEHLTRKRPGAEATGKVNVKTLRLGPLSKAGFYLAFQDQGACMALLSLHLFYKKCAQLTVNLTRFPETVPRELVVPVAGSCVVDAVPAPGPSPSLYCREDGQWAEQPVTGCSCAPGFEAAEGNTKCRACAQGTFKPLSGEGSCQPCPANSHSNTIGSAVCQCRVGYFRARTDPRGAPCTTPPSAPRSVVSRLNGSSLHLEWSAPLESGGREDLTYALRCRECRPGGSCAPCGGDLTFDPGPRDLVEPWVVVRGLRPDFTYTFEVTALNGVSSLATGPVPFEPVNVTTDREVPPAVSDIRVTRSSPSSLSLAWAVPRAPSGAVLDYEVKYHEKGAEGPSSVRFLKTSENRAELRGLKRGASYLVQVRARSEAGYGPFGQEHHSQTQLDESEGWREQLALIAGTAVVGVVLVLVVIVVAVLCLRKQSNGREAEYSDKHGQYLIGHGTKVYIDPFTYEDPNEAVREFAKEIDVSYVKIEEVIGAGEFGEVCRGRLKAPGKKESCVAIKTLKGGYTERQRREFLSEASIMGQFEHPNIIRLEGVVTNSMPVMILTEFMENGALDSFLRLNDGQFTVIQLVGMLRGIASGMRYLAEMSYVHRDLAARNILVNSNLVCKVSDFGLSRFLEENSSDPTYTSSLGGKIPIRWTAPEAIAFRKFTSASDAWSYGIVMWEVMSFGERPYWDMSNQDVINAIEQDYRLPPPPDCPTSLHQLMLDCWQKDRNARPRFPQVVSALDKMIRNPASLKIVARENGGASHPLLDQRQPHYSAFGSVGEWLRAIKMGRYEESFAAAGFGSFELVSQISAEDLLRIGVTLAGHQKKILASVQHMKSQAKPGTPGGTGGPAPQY

HT-29 [7] = assay: cells; details: Homo sapiens, HT-29, 72 h
Description: Antiproliferative activity against human HT-29 cells after 72 hrs by MTS assay

HT-29 [8] = assay: Cell cycle arrest in human HT-29 cells assessed as accumulation at G1 phase at 10 uM after 48 hrs by propidium iodide/RNase staining-based flow cytometric analysis (reference value: 62.1%); type: functional

Sequence of Glycogen synthase kinase-3 beta (Homo sapiens) (P49841 whole entry, looked up): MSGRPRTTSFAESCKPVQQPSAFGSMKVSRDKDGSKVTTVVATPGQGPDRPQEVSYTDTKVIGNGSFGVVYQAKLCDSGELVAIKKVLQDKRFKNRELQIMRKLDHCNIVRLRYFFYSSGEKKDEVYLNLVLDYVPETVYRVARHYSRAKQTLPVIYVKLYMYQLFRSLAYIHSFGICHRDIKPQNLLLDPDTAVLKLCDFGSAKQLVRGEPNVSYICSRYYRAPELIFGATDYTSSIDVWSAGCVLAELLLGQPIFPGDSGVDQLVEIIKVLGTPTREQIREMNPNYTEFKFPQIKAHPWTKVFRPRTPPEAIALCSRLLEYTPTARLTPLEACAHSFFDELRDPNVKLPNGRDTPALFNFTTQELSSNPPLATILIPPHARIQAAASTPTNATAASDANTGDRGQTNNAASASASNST
Sequence of Mitogen-activated protein kinase 1 (Homo sapiens) (P28482 whole entry): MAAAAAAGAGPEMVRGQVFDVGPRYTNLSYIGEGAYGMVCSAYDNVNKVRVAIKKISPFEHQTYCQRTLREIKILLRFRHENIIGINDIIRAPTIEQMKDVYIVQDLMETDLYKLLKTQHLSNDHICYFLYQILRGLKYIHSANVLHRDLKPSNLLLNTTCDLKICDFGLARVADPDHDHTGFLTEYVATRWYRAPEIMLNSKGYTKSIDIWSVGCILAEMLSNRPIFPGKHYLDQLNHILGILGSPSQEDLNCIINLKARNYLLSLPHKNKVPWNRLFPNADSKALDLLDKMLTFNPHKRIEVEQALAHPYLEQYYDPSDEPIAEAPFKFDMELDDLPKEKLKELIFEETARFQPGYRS

`Fc1ccc(Nc2nc(N3CCOCC3)c3nc[nH]c3n2)cc1` gave an inhibition [1] of 33%, an inhibition [2] of 89.9% and an inhibition [3] of 73%. For the same compound, the inhibition [4] was 47%, the Activity (HT-29 [5]) was 61% and the inhibition [6] was 23%. For the same compound, the GI50 (HT-29 [7]) was over 100 µM and the Activity (HT-29 [8]) was 60%.
